# In patent publication EP0537092A1, “Infracellular vesicular vectors and their application in cosmetic and medical compositions and culture media” (priority 1991, dated 1993):
# Read-outs that look alike come from different tables or passages of the source.
# Key:
# Type in all cases: cell-based, humaine
# collagène de type III = assay: radioimmunoassay of soluble collagen type III in fibroblast culture supernatant
# Description: (§1) Les résultats des essais présentés ci-après ont été obtenus selon la méthodologie suivante : Conditions de culture : les fibroblastes sont obtenus à partir d'explants de peau humaine. Les cellules sont maintenues en culture dans du milieu DMEM (Gibco) additionné de 10 % de sérum de veau foetal (Gibco) et d'antibiotiques (pénicilline 100 U/ml, streptomycine 100 µg/ml).
# (§2) Les subcultures sont réalisées par trypsination (Trypsin-EDTA, Gibco). Les cellules sont utilisées du 2e au 10e passage.
# (§3) Conditions de traitements : Les cultures de fibroblastes témoins se réferent aux cultures avec vecteurs sans principe actif, en quantité similaire aux autres traitements. Les cultures traitées avec la molécule en solution se réfèrent aux conditions de la culture témoin et de la molécule sous forme soluble.
# (§4) Les cultures traitées avec la forme vectoriale de la molécule impliquent que la molécule active soit inclue préalablement dans les vecteurs.
# (§5) Evaluation des collagènes solubles par dosage radioimmunologique : On prélève 100 µl de surnageant de culture et on y ajoute 100 µl d'anticorps anticollagène de type I ou anti-collagène de type III et 200 µl de PBS.
# collagène de type I = tested on: collagène de type I
# Description: as §1, §2, §3, §4, §5
# fibroblastes [1] = conditions: for prolifération des fibroblastes traités avec le Palmitate d'hydroxyproline: 10^4 cellules par puit
# Description: as §1, §2, §3, §4
# […] Puis on ajoute le sel de tétrazolium jaune (5 mg / ml). Il est réduit par les réductases mitochondriales des cellules vivantes en un produit formazan violet qui est ensuite solubilisé par de l'HCl 0,04 N dans de l'isopropanol.
# La réaction colorée est lue à une longueur d'onde de 570 nm par un Multiskan Titertek (Flow Laboratories) et exprimée en densité optique.
# [2] = tested on: collagénase interstitielle (MMP-1); assay: collagenase activity in the culture medium of fibroblasts; conditions: for Collagénase: Temps : 48 h, factor of change (summary table)
# Description: as §1, §2, §3, §4
# Mesure de l'activité collagénasique dans le milieu de culture
# On mesure la collagénase interstitielle qui dégrade les collagènes interstitiels natifs de type I-III. • a) Préparation du substrat : le collagène de type I, marqué au carbone-14, en solution dans CH3COOH 0,1 M est neutralisé à pH 7,4 par du Tris 1 M et dilué avec le tampon NaCl 0,15 M/CaCl2, 4 mM/Tris-HCl 50 mM, pH 7,4 contenant du NEM 0,5 mM et du PMSF 0,1mM à raison de […] substrat (= 10000 cpm/essai). • b) Dosage de la collagénase: 100 µl de milieu sont activés par 10 µl de trypsine (1 mg/ml) à 37°C pendant 10 mn, suivi de l'addition de 10 µl de SBTI (5 mg/ml): 10 mn à température ambiante. 100 µl de milieu sont aussi testés sans activation par la trypsine (mesure de la forme active de l'enzyme).
# Le substrat (10000 cpm/essai) est ajouté, éventuellement en présence d'EDTA 25 mM, le volume final étant de 250 µl. La réaction se déroule pendant 18 h à 25°C puis est stoppée par addition de 20 µl d'EDTA 250 mM (10 mn à température ambiante).Le mélange est ensuite chauffé 10 mn à 39°C.
# Le collagène non dégradé est précipité par l'éthanol à la concentration finale de 18 % (30 mn à température ambiante).
# Finalement, le mélange est centrifugé à 6000 g pendant 30 mn à 4°C. Des aliquots de 200 µl des surnageants sont mélangés avec 5 ml de liquide scintillant aqueux puis comptés pour leur radioactivité.
# Une unité de collagénase est définie comme la quantité d'enzyme nécessaire pour dégrader 1 µg de collagène natif par heure à 25°C.
# fibroblastes [3] = assay: summary conclusion on modulation of fibroblast activity (Tableau 10); conditions: Temps : 48 h
# Excerpt: Le tableau 10 ci-après résume les résultats obtenus. TABLEAU 10
# Ce tableau montre bien la capacité qu'ont les vecteurs selon l'invention à moduler l'activité des fibroblastes lorsqu'ils portent à leur surface certaines fonctions hydrophiles fixées sur ledit vecteur par un ester ou une amide d'acide gras.
molecule,measurement,setting,value
Palmitate d'hydroxyproline [Palmitate d'hydroxyproline Solution],synthèse de collagène type III par des fibroblastes traités avec le palmitate d'hydroxyproline,"collagène de type III; 24 heures, 1 µg/ml",295 ± 24 ng/mL
same,synthèse de collagène type III par des fibroblastes traités avec le palmitate d'hydroxyproline,"collagène de type III; 24 heures, 5 µg/ml",281 ± 16 ng/mL
same,synthèse de collagène type III par des fibroblastes traités avec le palmitate d'hydroxyproline,"collagène de type III; 48 heures, 1 µg/ml",588 ± 69 ng/mL
same,synthèse de collagène type III par des fibroblastes traités avec le palmitate d'hydroxyproline,"collagène de type III; 48 heures, 5 µg/ml",519 ± 20 ng/mL
same,synthèse de collagène type III par des fibroblastes traités avec le palmitate d'hydroxyproline,"collagène de type III; 72 heures, 1 µg/ml",628 ± 161 ng/mL
same,synthèse de collagène type III par des fibroblastes traités avec le palmitate d'hydroxyproline,"collagène de type III; 72 heures, 5 µg/ml",548 ± 24 ng/mL
same,synthèse de collagène type I par des fibroblastes traités avec le palmitate d'hydroxyproline,"collagène de type I; 24 heures, 1 µg/ml",268 ± 18 ng/mL
same,synthèse de collagène type I par des fibroblastes traités avec le palmitate d'hydroxyproline,"collagène de type I; 24 heures, 5 µg/ml",232 ± 10 ng/mL
same,synthèse de collagène type I par des fibroblastes traités avec le palmitate d'hydroxyproline,"collagène de type I; 48 heures, 1 µg/ml",519 ± 37 ng/mL
same,synthèse de collagène type I par des fibroblastes traités avec le palmitate d'hydroxyproline,"collagène de type I; 72 heures, 1 µg/ml",513 ± 77 ng/mL
same,synthèse de collagène type I par des fibroblastes traités avec le palmitate d'hydroxyproline,"collagène de type I; 72 heures, 5 µg/ml",470 ± 5 ng/mL
same,prolifération des fibroblastes traités avec le Palmitate d'hydroxyproline,"fibroblastes [1]; 24 heures, 1 µg / ml","0,493 ± 0,029 densité optique"
same,prolifération des fibroblastes traités avec le Palmitate d'hydroxyproline,"fibroblastes [1]; 24 heures, 5 µg / ml","0,492 ± 0,016 densité optique"
same,prolifération des fibroblastes traités avec le Palmitate d'hydroxyproline,"fibroblastes [1]; 24 heures, 10 µg / ml","0,502 ± 0,019 densité optique"
same,prolifération des fibroblastes traités avec le Palmitate d'hydroxyproline,"fibroblastes [1]; 24 heures, 20 µg / ml","0,457 ± 0,022 densité optique"
same,prolifération des fibroblastes traités avec le Palmitate d'hydroxyproline,"fibroblastes [1]; 48 heures, 1 µg / ml","0,494 ± 0,012 densité optique"
same,prolifération des fibroblastes traités avec le Palmitate d'hydroxyproline,"fibroblastes [1]; 48 heures, 5 µg / ml","0,513 ± 0,025 densité optique"
same,prolifération des fibroblastes traités avec le Palmitate d'hydroxyproline,"fibroblastes [1]; 48 heures, 10 µg / ml","0,511 ± 0,020 densité optique"
same,prolifération des fibroblastes traités avec le Palmitate d'hydroxyproline,"fibroblastes [1]; 48 heures, 20 µg / ml","0,471 ± 0,028 densité optique"
same,prolifération des fibroblastes traités avec le Palmitate d'hydroxyproline,"fibroblastes [1]; 72 heures, 1 µg / ml","0,490 ± 0,019 densité optique"
same,prolifération des fibroblastes traités avec le Palmitate d'hydroxyproline,"fibroblastes [1]; 72 heures, 5 µg / ml","0,500 ± 0,028 densité optique"
same,prolifération des fibroblastes traités avec le Palmitate d'hydroxyproline,"fibroblastes [1]; 72 heures, 10 µg / ml","0,496 ± 0,017 densité optique"
same,dose à partir de laquelle une cytotoxicité est détectée,"fibroblastes [1]; human, skin fibroblasts",≥ 20 µg/mL
same,Collagénase,[2]; 40 µg/ml,=
same,dose qui stimule de manière significative la synthèse de la collagénase,[2]; cultures de fibroblastes,1 µg/mL
same,CONCLUSION à 4.10⁵cell.,fibroblastes [3]; 40 µg/ml,inhibit. des collagènes.
"O=C(O)[C@@H]1C[C@@H](O)CN1 [Hydroxyproline libre, Hydroxyproline]",fold induction at 10 µg/mL,"collagène de type III; Skin fibroblast, Temps : 48 h, 10 µg/ml, factor of change (summary table), read-out: Synthèse collag. III",2
same,Cytotoxicité Test MTT,"fibroblastes [1]; Temps : 48 h, 10 µg/ml",non
same,Prolifération,"fibroblastes [1]; Temps : 48 h, 10 µg/ml, factor of change (summary table)",=
same,Collagénase,[2]; 10 µg/ml,=
same,CONCLUSION à 4.10⁵cell.,fibroblastes [3]; 10 µg/ml,Stimulant sélectif du collagène I
"CCCCCCCCCCCCCCCC(=O)OC[C@H](O)[C@H]1OC(=O)C(O)=C1O [palmitate d'ascorbyle en solution, palmitate d'ascorbyle]",fold induction at 25 µg/mL,"collagène de type III; Skin fibroblast, Temps : 48 h, 25 µg/ml, factor of change (summary table), read-out: Synthèse collag. III",30
same,Cytotoxicité Test MTT,"fibroblastes [1]; Temps : 48 h, 25 µg/ml",non
same,Collagénase,[2]; 25 µg/ml,=
same,CONCLUSION à 4.10⁵cell.,fibroblastes [3]; 25 µg/ml,Stimulants non sélectifs
